Measurements from ChEMBL document CHEMBL1144461, “Targeted drug-carrying bacteriophages as antibacterial nanomedicines” (Antimicrob Agents Chemother, 2007).
The source made the active and inactive calls.

Assays:
Assay type in all cases: functional, organism-based
Escherichia coli = experiment: Antibacterial activity against Escherichia coli O78
Staphylococcus aureus = experiment: Antibacterial activity against Staphylococcus aureus COL
Streptococcus pyogenes = experiment: Antibacterial activity against Streptococcus pyogenes

Measured: Activity

O=C(N[C@H](CO)[C@H](O)c1ccc([N+](=O)[O-])cc1)C(Cl)Cl
active: all assays above
